“Also recorded” adds a separate entry of the source.

The values that follow come from article PMC11994644, “In vivo quantification of [^11C]BIO-1819578 in non-human primates, a novel radioligand for O-GlcNAcase” (Journal of Cerebral Blood Flow & Metabolism, 2025).

One assay concerns the target OGA. The note with it: cited from earlier work.
The test system of a further assay is O-GlcNAcase (OGA). Briefly: OGA occupancy after pretreatment with Thiamet-G (revisited Lassen plot). Type of assay: in vivo, cynomolgus monkey.

A word on the Kd: it is the constant that tells how readily two partners part at equilibrium. Consider `CC(=O)Nc1ncc(CN2CCC[C@H](N(C)c3ccc(F)cn3)C2)s1` [BIO-1819578], for which the Kd on OGA was 2.3 nM.

In the case of `CCN=C1N[C@@H]2[C@@H](O)[C@H](O)[C@@H](CO)O[C@@H]2S1` [Thiamet-G], the occupancy with O-GlcNAcase (OGA) (Thiamet-G 10 mg/kg i.v. 45 minutes prior to PET, 2TCM, one NHP) was 97.6%. In the assay with O-GlcNAcase (OGA) (Thiamet-G 10 mg/kg i.v., NHP 3), the “effect of pretreatment on [^11C]BIO-1819578 distribution volume (VT)” value is “reduced the distribution volume in all brain regions; also recorded: decreased in all regions”.
